Drawing on patent publication US20120010206A1, “IMIDAZOLOPYRIDINE COMPOUNDS USEFUL FOR THE TREATMENT OF DEGENERATIVE AND INFLAMMATORY DISEASES” (priority 2006, published 2012), this text covers IC50 and EC50 for 17 compounds.

As a reminder, the IC50 is the concentration that gives 50% inhibition. As usually defined, the EC50 is the midpoint of the concentration-response curve.

The target of one test is T1, TAK1-TAB1 fusion protein (Homo sapiens, UniProt O43318).
T1 construct: purchased Upstate 14-600
T1 sequence (O43318 with tags, fused parts or gaps limits assumed): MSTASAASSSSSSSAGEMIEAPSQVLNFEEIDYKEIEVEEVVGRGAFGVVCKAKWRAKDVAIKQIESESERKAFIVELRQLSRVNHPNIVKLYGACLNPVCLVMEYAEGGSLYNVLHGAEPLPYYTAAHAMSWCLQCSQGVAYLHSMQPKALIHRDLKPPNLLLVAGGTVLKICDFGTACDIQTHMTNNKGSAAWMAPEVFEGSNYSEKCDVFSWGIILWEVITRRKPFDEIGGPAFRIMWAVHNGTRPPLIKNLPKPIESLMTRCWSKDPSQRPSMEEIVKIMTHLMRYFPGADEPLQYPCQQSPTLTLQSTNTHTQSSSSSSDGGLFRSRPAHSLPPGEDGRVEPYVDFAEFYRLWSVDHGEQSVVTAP
As to the kind of experiment: In vitro TAK1 kinase assay (33P-ATP, casein substrate). Format: biochemical. Conditions: semi-quantitative score, at least two independent experiments. Here is the method: For assessing TAK1 inhibition, active TAK1-TAB1 fusion protein was used from Upstate (Cat. No, 14-600). Kinase reactions are set up in 96-well polypropylene plates in 25 μL containing 0.5 mU TAK1-TAB1 fusion protein, […], 0.01 μCi/μL [^33P]-γ-ATP, 0.1 mg/mL casein substrate in 1× reaction buffer containing 10 mM MOPS pH 7.0, 1 mM EDTA.
Starting from the compound master stocks (all at 10 mM concentration in 100% DMSO) a 3-fold serial dilution is made in 96-well plates in 100% DMSO. Plates are further diluted […] in H2O containing 3.5% DMSO, to obtain an intermediate work stock with compounds at 5× the final assay concentration in 5% DMSO.
5 μL of the intermediate stock is transferred into V-bottom 96 well polypropylene plates and 11 μL of Enzyme mix is added. Enzyme mix is made by combining 5 μL 5× reaction buffer ([…] pH 7.0, 1 mM EDTA), 5 μL casein (Sigma) diluted in H2O to 0.5 mg/mL and 1 μL of TAK1-TAB1 fusion protein that was prediluted to 0.5 mU/μL in 1× enzyme dilution buffer (20 mM MOPS pH 7.0, 0.1 mM EDTA, 0.01% Brij-35, 5% glycerol, 1 mM DTT, 1 mg/ml BSA).
The reactions are started by the addition of 9 μL of mixture containing ATP (20.83 uM) and [^33P]-γ-ATP (0.028 μCi/μL).
The assay is stopped 90 minutes after incubation at 30° C. by the addition of 25 μL phosphoric acid (150 mM). The label incorporated into the casein substrate is separated from labeled unincorporated ATP by filtration onto 96-well filter plates using a harvester device. After 6 washes with 75 mM phosphoric acid, the bottom of the filter plates are sealed, and incorporated label is quantified after addition of 40 μL scintillation fluid using TopCount.
Based on these percent inhibition data obtained in at least two independent experiments for the compounds, compounds are ranked using semi-quantitative scores. Table A below lists a number of compounds which have been or can be prepared according to the synthetic methods described herein. Semi-quantitative score: • *>3001 nM • ** 1001-3000 nM • *** 101-1000 nM • ****<100 nM

The subject of test [1] is MMP1 expression from activated SFs (RASF). The test is described as follows: MMP assay: MMP1 expression (ELISA) by TNF-α-triggered RASFs. Conditions: RASF triggered with TNFα, MMP1 ELISA after 48 hrs, semi-quantitative score. Format: cell-based. Here is the method: A 384-well format ELISA for measurement of MMP1 is developed. Various primary antibodies are tested, as well as various ELISA protocols. The following protocol is developed and validated to measure MMP1 levels in SF supernatant in 384 well plates: white Lumitrac 600 384 well plates (Greiner) are coated with 2 μg/mL anti-MMP1 antibody MAB1346 (Chemicon). The antibody is diluted in buffer 40 (1.21 g Tris base (Sigma), 0.58 g NaCl (Calbiochem) and 5 mL 10% NaN3 (Sigma) in 1 L milliQ water and adjusted to pH 8.5). After overnight incubation at 4° C., plates are washed with PBS (80 g NaCl, 2 g KCl (Sigma), 11.5 g Na2HPO4.7H2O and 2 g KH2PO4 in 10 L milliQ; pH 7.4) and blocked with 100 μL/well Casein buffer (2% Casein (VWR International) in PBS). Next day, casein buffer is removed from ELISA plates and replaced by 50 μL/well EC buffer (4 g casein, 2.13 g Na2HPO4 (Sigma), 2 g bovine albumin (Sigma), 0.69 g NaH2PO4.H2O (Sigma), 0.5 g CHAPS (Roche), 23.3 g NaCl, 4 mL 0.5 M EDTA pH 8 (Invitrogen), 5 mL 10% NaN3 in 1 L milliQ and adjusted to pH 7.0). 0.25 mM DTT (Sigma) is added to the thawed sample plates. After removal of the EC buffer, 20 μL of sample is transferred to the ELISA plates. After overnight incubation at 4° C. plates are washed twice with PBS and once with PBST (PBS with 0.05% Tween-20 (Sigma)) and incubated with 35 μL/well biotinylated anti-MMP1 antibody solution (R&D). This secondary antibody is diluted in buffer C (0.82 g NaH2PO4.H2O, 4.82 g Na2HPO4, 46.6 g NaCl, 20 g bovine albumin and 4 ml, 0.5M EDTA pH 8 in 2 L milliQ and adjusted to pH 7.0) at a concentration of 5 μg/mL. After 2 h of incubation at RT, plates are washed as described above and incubated with 50 μL/well streptavidin-HRP conjugate (Biosource). Streptavidin-HRP conjugate is diluted in buffer C at a concentration of 0.25 μg/mL. After 45 min, plates are washed as described above and incubated for 5 min with 50 μL/well BM Chem ELISA Substrate (Roche). Readout is performed on the Luminoscan Ascent Luminometer (Labsystems) with an integration time of 200 msec or with an Envision reader (Perkin Elmer).
SFs were acquired at passage 1 from a commercial supplier (Cell applications, Inc.). SFs are cultured in DMEM supplemented with 10% heat-inactivated FBS, 1× penicillin/streptomycin (Invitrogen) at 37° C., 10% CO2 until passage 6. Aliquots of the cells are frozen and cryopreserved in liquid nitrogen. Starting from a cryopreserved aliquot, cells are further expanded by sub-culturing cells at 1/3 ratio every week. Cells between passage 10 and 12 are routinely used in compound testing according to the following protocol.
Starting from the compound master stocks (all at 10 mM concentration in 100% DMSO) a 3-fold serial dilution is made in 96-well plates in 100% DMSO. Then, plates are further diluted 45-fold in M199 medium supplemented with 1% heat-inactivated FBS to obtain a intermediate work stock.
At day 1, RASFs are seeded in 96 well plates (flat bottom, tissue culture treated, Greiner) at a density of 3000 cells/well in complete synovial growth medium (Cell Applications). Day 5, the medium is completely removed from the cells, and replaced by 81 μL of M199 medium supplemented with 1% heat-inactivated FBS followed by addition of 10 μL compound out of the intermediate work stock. After an incubation period of 90 minutes, which allows the compounds to equilibrate and enter the cells, cells are stimulated with either TNF-α or ‘complex trigger’. TNF-α trigger is added in a volume of […] to obtain final concentration of 10 ng/mL. For that, TNF-α stock (PeproTech) at 10 μg/mL was diluted to 100 ng/mL TNF-α in M199 medium supplemented with 1% FBS. ‘Complex trigger’ mix is added in a volume of 20 μL to obtain a final concentration of 12.5%. For that, ‘complex trigger’ mix, is diluted to 80% with M199 medium supplemented with 1% FBS. […]
In general terms: In an ELISA, binding on a coated surface is turned into a signal by an enzyme label.

Molecules are shown by their SMILES. Some results are limits rather than exact numbers.

As for `CCN1CCC[C@H]1CNC(=O)c1ccc(Nc2ccc(-c3ccc4c(c3)CNC4=O)n3ccnc23)cc1` [Compound 49, (S)-N-((1-ethylpyrrolidin-2-yl)methyl)-4-(5-(1-oxoisoindolin-5-yl)imidazo[1,2-a]pyridin-8-ylamino)benzamide], at TAK1-TAB1 fusion protein, the half-maximal inhibitory concentration (IC50) is < 100 nM. The EC50 in test [1] was > 3000 nM.
Regarding `CC(C)N1CCN(c2ccc(Nc3ccc(-c4ccc5c(c4)CNC5=O)n4ccnc34)cc2F)CC1` [Compound 26, 5-(8-(3-fluoro-4-(4-isopropyl-piperazin-1-yl)phenylamino)imidazo[1,2-a]pyridin-5-yl)isoindolin-1-one], the IC50 at TAK1-TAB1 fusion protein was < 100 nM. The EC50 in test [1] is > 3000 nM.
Taken in the same sequence, the figures for `CC(=O)N(C)C1CCN(C(=O)c2ccc(Nc3ccc(-c4ccc5c(c4)CNC5=O)n4ccnc34)cc2)C1` (stereo not shown) [Compound 42, N-methyl-N-(1-(4-(5-(1-oxoisoindolin-5-yl)imidazo[1,2-a]pyridin-8-ylamino)benzoyl)pyrrolidin-3-yl)acetamide] were 101 to 1000 nM and > 3000 nM.
Taken in the same sequence, the figures for `CC(C)N1CCN(c2ccc(Nc3ccc(-c4cc[nH]c(=O)c4)n4ccnc34)cc2C(F)(F)F)CC1` [Compound 106, 4-{8-[4-(4-Isopropyl-piperazin-1-yl)-3-trifluoromethyl-phenylamino]-imidazo[1,2-a]pyridin-5-yl}-1H-pyridin-2-one] were > 3000 nM and 101 to 1000 nM.
For `CCN1CCN(c2ccc(Nc3ccc(-c4ccc(C(N)=O)cc4)n4ccnc34)cc2)CC1` [Compound 81] the same measures were 101 to 1000 nM and 1000 to 3000 nM.
Take `NC(=O)c1ccc(-c2ccc(Nc3ccc(N4CCOCC4)c(F)c3)c3nccn23)cc1Cl` [Compound 73]: the concentration for half-maximal inhibition (IC50) on TAK1-TAB1 fusion protein is > 3000 nM. This compound gave an EC50 in test [1] of 101 to 1000 nM.
On to `CCC(CC)N1CCN(c2ccc(Nc3ccc(-c4ccc(C(N)=O)cc4)n4ccnc34)cc2)CC1` [Compound 80], for which, on TAK1-TAB1 fusion protein, the half-inhibitory concentration (IC50) was in the range of 101 to 1000 nM. Also, the half-maximal effective concentration (EC50) in test [1] is > 3000 nM.
For `CCN1CCN(c2ccc(Nc3ccc(-c4ccc5c(c4)CNC5=O)n4ccnc34)cc2Cl)CC1` [Compound 28, 5-(8-(3-chloro-4-(4-ethylpiperazin-1-yl)phenylamino)imidazo[1,2-a]pyridin-5-yl)isoindolin-1-one] the same measures were 101 to 1000 nM and > 3000 nM.
Taken in the same sequence, the figures for `CCN1CCN(c2ccc(Nc3ccc(-c4cc[nH]c(=O)c4)n4ccnc34)cc2)CC1` [Compound 91] were 101 to 1000 nM and 101 to 1000 nM.
In the case of `CC(C)N1CCN(c2ccc(Nc3ccc(-c4ccc(C(N)=O)cc4)n4ccnc34)cc2)CC1` [Compound 10, 4-{8-[4-(4-Isopropyl-piperazin-1-yl)-phenylamino]-imidazo[1,2-a]pyridin-5-yl}-benzamide], the IC50 against TAK1-TAB1 fusion protein is 101 to 1000 nM. The compound also came in with an EC50 in test [1] of 101 to 1000 nM.
`CCOCCN1CCN(C(=O)c2ccc(Nc3ccc(-c4ccc5c(c4)CNC5=O)n4ccnc34)cc2)CC1` [Compound 40, 5-(8-(4-(4-(2-ethoxyethyl)piper-azine-1-carbonyl)phenyl-amino)imidazo[1,2-a]pyridin-5-yl)isoindolin-1-one] yielded an IC50 on TAK1-TAB1 fusion protein of 101 to 1000 nM. Further, the EC50 in test [1] was > 3000 nM.
For `CN(C)c1ccc(CNC(=O)c2ccc(Nc3ccc(-c4ccc5c(c4)CNC5=O)n4ccnc34)cc2)cc1` [Compound 33] the same measures were 101 to 1000 nM and 101 to 1000 nM.
Taken in the same sequence, the figures for `O=C1NCc2cc(-c3ccc(Nc4ccc(C(=O)N5CCC(N6CCCCC6)CC5)cc4)c4nccn34)ccc21` [Compound 46, 5-(8-(4-(1,4′-bipiperidine-1′-carbonyl)phenylamino)imidazo[1,2-a]pyridin-5-yl)isoindolin-1-one] were < 100 nM and > 3000 nM.
`CN1CCN(c2ccc(Nc3ccc(-c4cn[nH]c4)n4ccnc34)cc2)CC1` [Compound 4, [4-(4-Methyl-piperazin-1-yl)-phenyl]-[5-(1H-pyrazol-4-yl)-imidazo[1,2-a]pyridin-8-yl]-amine]: the IC50 at TAK1-TAB1 fusion protein lay in the range of 101 to 1000 nM. In test [1], the EC50 was > 3000 nM.
Taken in the same sequence, the figures for `CCC(C)N1CCN(C(=O)c2ccc(Nc3ccc(-c4ccc5c(c4)CNC5=O)n4ccnc34)cc2)CC1` (stereo not shown) [Compound 52, 5-(8-(4-(4-sec-butylpiperazine-1-carbonyl)phenylamino)imidazo [1,2-a]pyridin-5-yl)isoindolin-1-one] were 101 to 1000 nM and > 3000 nM.
For `CCN1CCN(C(=O)c2ccc(Nc3ccc(-c4ccc5c(c4)CNC5=O)n4ccnc34)cc2)CC1` [Compound 53, 5-(8-(4-(4-ethylpiperazine-1-carbonyl)phenylamino)imidazo [1,2-a]pyridin-5-yl)isoindolin-1-one] the same measures were < 100 nM and > 3000 nM.
Taken in the same sequence, the figures for `CC(C)N1CCC(c2ccc(Nc3ccc(-c4ccc5c(c4)CNC5=O)n4ccnc34)cc2)CC1` [Compound 19, 5-(8-(4-(1-isopropyl-piperidin-4-yl)phenylamino)imidazo[1,2-a]pyridin-5-yl)isoindolin-1-one] were < 100 nM and 101 to 1000 nM.
